Data as given in US9302993B2, “8-hydroxy quinoline derivatives” (PRANA BIOTECHNOLOGY LIMITED, priority 2002, dated 2016).
Values joined by “and” are separate entries in the source; they are usually repeats but may differ in a detail not shown here. Equal values may be shown once. Read-outs that look alike come from different tables or passages of the source.

How the values were obtained:
[1] = molecular target: T1, hydrogen peroxide generation by Aβ in the presence of copper (Homo sapiens, UniProt P05067); test: Fluorometric H2O2 assay (Assay 1); format: biochemical; conditions: Aβ 1-42 with Cu-Gly, DCF/HRP, 37 C 60 min; several values in one cell = repeat determinations; read-out: Peroxide IC50
T1 construct: The reaction solutions contained Aβ 1-42 at concentrations in the range of 50 nM to 1 μM
T1 sequence (P05067 672-713 limits assumed): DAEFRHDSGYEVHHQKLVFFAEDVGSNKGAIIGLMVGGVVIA
Protocol: Assay 1. Fluorometric H2O2 Assay
A fluorometric assay was used to test the ability of a test compound to inhibit hydrogen peroxide generation by Aβ in the presence of copper based on dichlorofluoroscein diacetate (DCF; Molecular Probes, Eugene Oreg.). The DCF solution (5 mM) in 100% dimethyl sulphoxide (previously purged with argon for 2 hr at 20° C.) was deacetylated in the presence of 0.25M NaOH for 30 min and neutralised at pH 7.4 to a final concentration of 1 mM. Horseradish peroxidase (HRP) stock solution was prepared to 1 μM at pH 7.4. The reactions were carried out in PBS, pH 7.4 in a 96 well plate (total volume=250 μl/well). The reaction solutions contained Aβ 1-42 at concentrations in the range of 50 nM to 1 μM, copper-glycine chelate (Cu-Gly), was prepared by adding CuCl2 to glycine in the ratio of 1:6 and added to the Aβ in the proportion 2Cu-Gly: 1Aβ), reducing agents including dopamine (5 μM) or ascorbic acid, deacetylated DCF 100 μM, and HRP, 0.1 μM. […] The reaction mixture was incubated at 37 C for 60 min. […] H2O2 concentration may be established by comparing fluorescence with the H2O2 standards. Inhibition of AB H2O2 production was assayed by including a given concentration of test compound(s) in the test wells.

Neuronal cortical cells = test: Assay for test compound cytoxicity, MTS (Assay 3(d)); format: cell-based, mouse; conditions: BL6J×129sv, mouse, 4 days
Protocol: (§1) Media was then replaced with Neurobasal media (Invitrogen Life Technologies) and B27 supplements (Invitrogen Life Technologies). Cultures were maintained at 37° C. in 5% CO2. Prior to experimentation, the culture medium was replaced with Neurobasal media and B27 minus antioxidants (Invitrogen Life Technologies).
Cell viability is determined using the MTS assay. Culture medium is […] replaced with fresh neurobasal medium plus B27 supplements minus antioxidants. 1/10th volume MTS solution (Cell Titre 96 Aqueous One, Promega Corporation) and incubated at 37° C., 2 hrs. 200 microliter aliquots are measured with a spectrophotometer at 560 nm.
(d) Assay for Test Compound Cytoxicity
Neuronal cortical cells were cultured for five days as per Assay 2 in NB media and B27 supplement.
On day six the test compounds were added to the neuronal cell cultures in NB media and B27 supplement minus antioxidants.
Test compounds were dissolved in 100% DMSO to a concentration of 2.5 mM (10 mM if excess compound was weighed out per vial—then diluted to 2.5 mM). […] Test compounds were not added directly to cells, instead they were added to a 48 well ‘Drug Plate’ as comprised below:
(§2) The Drug Plate was incubated at 37° C. for 15 mins. 200 ul of each well was added in triplicate to the corresponding cell plate. The cell plate was incubated at 37 C, for 4 days.
On completion of the assay, 1/10 volume MTS was added per well of plate (ie 25 ul/250 ul). The plates were incubated at 37 C for 2 hrs, and then absorbance was read at 560 nm.

[2] = tested on: Neuronal cortical cells treated with Aβ1-42; test: Assay for Aβ neurotoxicity and Aβ neuroprotection (Assay 3(c)); format: cell-based, mouse; conditions: 20 uM Aβ1-42, 4 days, MTS
Protocol: as §1
(c) Assay for Aβ Neurotoxicity and Aβ Neuroprotection
Neuronal cortical cells were cultured for five days as per Assay 2. On day six the neurobasal (NB) media (Invitrogen Life Technologies) and B27 supplement (Invitrogen Life Technologies) were replaced with NB media and B27 supplement (no antioxidants). On day six, test compounds were individually added to the neuronal cell cultures:
Aβ was initially dissolved in 20 mM NaOH to a concentration of 1 mM and sonicated for 5 minutes. The peptide was then diluted in H2O and 10×PBS to a final concentration of 200 uM Aβ in 1×PBS. The peptide was again sonicated for 5 minutes and then spun at 14000 rpm for 5 min and transferred to a fresh tube.
The test compounds were dissolved in 100% DMSO to a concentration of 2.5 mM (10 mM if excess compound was weighed out per vial—then diluted to 2.5 mM). […] Test compounds were not added directly to cells, instead they were added to a 48 well ‘Drug Plate’ as comprised below:
as §2
On the 4th day after treating the cells the assay is completed by adding MTS to the cells.

[3] = tested on: Aβ in extract of tissue from post mortem human AD brain; test: Human brain amyloid solubilisation assay (Assay 9, BAS); format: biochemical
Protocol: Assay 9. Human Brain Amyloid Solubilisation Assay
This assay was performed in order to assess the ability of a test compound to mobilise Aβ from the insoluble to the soluble phase of an extract of tissue from post mortem human AD brain.
Up to 0.5 g of plaque-bearing cortex without meninges was homogenized using a DIAX 900 homogenizer (Heudolph and Co, Kelheim, Germany) or other suitable device for three 30-second periods at full speed in 2 ml of ice-cold phosphate-buffered saline, pH 7.4. To obtain the phosphate-buffered saline-extractable fraction, the homogenate was centrifuged at 100,000×g for 30 min and the supernatant removed. Alternatively, the tissue was freeze dried then pulverised to form a powder which was then weighed out into aliquots for extraction as above. Supernatant, either freeze-dried and resuspended or in unconcentrated form, was dissolved in 200 μl of Tris-Tricine sodium dodecyl sulfate (SDS) sample buffer pH 8.3 containing 8% SDS, 10% 2-mercaptoethanol. Aliquots (10 μl) were then boiled for 10 minutes before SDS-polyacrylamide gel electrophoresis. The insoluble fraction of the cortical samples was obtained by resuspending the initial pelleted sample in 1 ml of phosphate-buffered saline. A 50-μl aliquot of this suspension was then boiled in […] of sample buffer as above.
Tris-Tricine polyacrylamide gel electrophoresis was performed by loading appropriately diluted samples on to 10% to 20% gradient gels (Novex, San Diego, Calif.) followed by transfer on to 0.2-μm nitrocellulose membrane (Bio-Rad, Hercules, Calif.). Aβ was detected by using monoclonal antibody W02, which detects residues 5 through 8, […] (or another suitable antibody) in conjunction with horseradish peroxidase-conjugated rabbit anti-mouse IgG (Dako, Denmark), and visualized by using enhanced chemiluminescence (eg ECL; Amersham Life Science, Buckinghamshire, UK). Each gel included three lanes containing 0.5, 1, and 2 ng of synthetic Aβ40 (Keck Laboratory, Yale University, New Haven, Conn.) as reference standards.
Blot films were scanned by using a suitable imaging system such as the UVP gel documentation system, and densitometry performed using suitable software, eg UVP Labworks. The dynamic range of the film/scanner was determined by using a step tablet (No. 911ST600, Kodak, Rochester N.Y.), a calibrated film exposed by the manufacturer to provided steps of known increasing intensity. The quantifiable range of signal intensity for densitometric analysis of the mono- and dimeric Aβ bands was based on the comparison with a curve obtained by scanning and densitometry of the step tablet.
All samples were analysed at least twice, and gel loadings and dilutions were adjusted to fit within the quantifiable region of the standard curve. […] The insoluble Aβ being comprised of the pelletable fraction derived from the insoluble amyloid plaque from the above cortical samples and the soluble fraction comprising monomeric and/or oligomeric soluble Aβ.

[4] = solubilising plaques relative to PBS

| SMILES | IC50 [1] | Test Compound Cytoxicity 1 uM (Neuronal cortical cells) | Test Compound Cytoxicity 10 uM (Neuronal cortical cells) | % inhibition Abeta toxicity [2] [%] | Viable 10 uM (Neuronal cortical cells) | BAS Score [3, 4] | BAS Score [3] |
| --- | --- | --- | --- | --- | --- | --- | --- |
| CO/N=C/c1ccc2c(Cl)cc(Cl)c(O)c2n1 [compound 1032] | 1000 nM | 83 | 42 | −2 |  |  |  |
| Oc1c(Br)cc(Br)c2cccnc12 [compound 47] | 900 nM | 88 | 86 | 13 | 93.59 |  |  |
| COc1ccccc1-c1cc(-c2ccccc2OC)c2cccnc2c1O [compound 862] |  |  |  |  |  | + |  |
| Oc1c(I)cc(-c2ccccc2C(F)(F)F)c2cccnc12 [compound 860] |  |  |  |  |  | + |  |
| O=C(CNC(=O)c1cc(O)c2cccc(O)c2n1)NCc1ccccn1 [compound 988] |  |  |  |  | 93.27 | − |  |
| Oc1c(Cl)cc(Cl)c2cc(Cl)cnc12 [compound 1058, 3,5,7-trichloro-8-hydroxyquinoline] | 680 nM | 82.47 | 54.60 | 30 | 54.60 |  |  |
| O=C(NCc1ccccn1)c1ccc2cccc(O)c2n1 [compound 949] | 900 nM |  |  |  | 84.82 | + |  |
| Oc1cccc2ccc(CNCc3ccccn3)nc12 [compound 991] |  |  |  |  |  | + |  |
| NC(=O)c1ccc2c(Cl)cc(Cl)c(O)c2n1 [compound 1037] | > 10000 nM | 88 | 87 | 4 |  |  |  |
| Oc1cccc2ccc(CN(CCc3c[nH]cn3)Cc3ccccn3)nc12 [compound 1009] | 320 nM | 94 | 32 | 16 |  |  |  |
| CN(C)c1ccc(-c2cc(Cl)c3cccnc3c2O)cc1 [compound 851] | < 700 nM |  |  |  |  | − |  |
| O=S(=O)(O)c1cc(I)c(O)c2ncccc12 [compound 43] | 600 nM |  |  |  | 91.02 | − |  |
| Oc1c(-c2ccccc2F)cc(-c2ccccc2F)c2cccnc12 [compound 975] | 3200 nM |  |  |  |  | + |  |
| O/N=C/c1ccc2c(Cl)cc(Cl)c(O)c2n1 [compound 1031] | 760 nM | 85 | 81 | 8 |  |  |  |
| Oc1cccc2ccc(CN(CCc3c[nH]cn3)Cc3nccs3)nc12 [compound 1002] | 390 nM | 82 | 34 | 17 |  |  |  |
| Cc1cccc(-c2ccc3cccc(O)c3n2)n1 [compound 1007] | 580 nM | 90 | 43 | 9 |  |  |  |
| Cc1cccc(-c2cc(Cl)c3cccnc3c2O)c1 [compound 859] |  |  |  |  |  | + |  |

| SMILES | IC50 [1] | Test Compound Cytoxicity 1 uM (Neuronal cortical cells) | Test Compound Cytoxicity 10 uM (Neuronal cortical cells) | % inhibition Abeta toxicity [2] [%] | Viable 10 uM (Neuronal cortical cells) | BAS Score [3, 4] | BAS Score [3] |
| --- | --- | --- | --- | --- | --- | --- | --- |
| N=C(N)NCc1ccc2cccc(O)c2n1 [compound 966] | 4300 nM |  |  |  | 88.61 | + |  |
| O=C(NCc1ccccn1)c1cc(O)c2cccc(O)c2n1 [compound 955] | 260 nM and 180 nM |  |  |  | 100 | − |  |
| Oc1cccc2ccc(CN(Cc3ccccn3)Cc3ccccn3)nc12 [compound 1010] | 330 nM | 88 | 27 | 12 |  |  |  |
| O=C(Nc1ccccc1O)c1ccc2cccc(O)c2n1 [compound 951] | 1430 nM |  |  |  | 91.86 | − |  |
| Oc1c(I)cc(I)c2cccnc12 [compound 46] | 1000 nM |  |  |  | 91.97 | − |  |
| NCCNC(=O)c1ccc2cccc(O)c2n1 [compound 957] |  |  |  |  | 95.86 | + |  |
| Oc1cccc2ccc(CNCCc3c[nH]cn3)nc12 [compound 989] | 420 nM |  |  |  | 43.24 | − |  |
| Oc1ccc(Cl)c2cccnc12 [compound 48] | 800 nM |  |  |  | 85 | − |  |
| Oc1c(-c2ccccc2)cc(-c2ccccc2)c2cccnc12 [compound 809] | < 4000 nM and 1800 nM |  |  |  | 26.31 | + |  |
| COc1ccccc1-c1cc(I)c(O)c2ncccc12 [compound 863] |  |  |  |  | 34.97 | + |  |
| Oc1c(-c2ccccc2C(F)(F)F)cc(-c2ccccc2C(F)(F)F)c2cccnc12 [compound 974] | 600 nM |  |  |  |  | + |  |
| Nc1ccc(O)c2ncccc12 [compound 44] |  |  |  |  | 71.05 |  | + |
| O=C(NCCc1cnc[nH]1)c1cc(O)c2cccc(O)c2n1 [compound 954] | 180 nM |  |  |  | 104.9 | − |  |
| CC(=O)c1ccc2cccc(O)c2n1 [compound 976] | 3700 nM |  |  |  |  | − |  |
| Cc1ccccc1-c1cc(I)c(O)c2ncccc12 [compound 861] | 910 nM |  |  |  | 37.83 | + |  |
| Cc1ccccc1-c1cc(-c2ccccc2C)c2cccnc2c1O [compound 852] |  |  |  |  | 33.52 | + |  |
